Source: patent publication US20160194274A1, “PHENANTHRENE DERIVATIVES FOR USE AS MEDICAMENTS” (VALENTIA BIOPHARMA, priority 2012, published 2016)
Where two headings read alike, the source gives them in different places.

Key:
[1] = test system: ribonuclear foci in MyoD transformed fibroblasts derived from DM1 patients (>300 CTG repeats); assay: FISH detection of aberrant ribonuclear foci in human DM1 fibroblasts; format: cell-based; conditions: 24 h treatment, vs no treatment
Procedure: FIG. 1. Quantification of aberrant ribonuclear foci (DM1 disease hallmark) in human DM1 fibroblasts. Treatments with the compounds of Formula I were performed (VLT002, VLT015, VLT025, VLT024, VLT042, VLT040, VLT023, VLT026, VLT048, VLT045, VLT043, VLT049, VLT051 VLT053 and VLT056). (A) Number (medium) of foci/nuclei (No treatment vs. compound treatment). (B) Number of cells without foci (No treatment vs. compound treatment). n=100 minimum number of cells counted. T-Student test: * indicates p-value <0.05 ** p-value p<0.005 *** p-value p<0.0005.
After screening identification of the compounds of the invention (see FIG. 10), main validation was done using Fluorescence In Situ Hybridization (FISH) detection of aberrant aggregation of ribonuclear foci in cell lines from DM1 patients (see FIG. 1) and in DM1 Drosophila model (see FIG. 2) (Garcia-Lopez et al., Proc. Natl. Acad. Sci. USA. 108(29):11866-71 (2011)). Briefly, regarding human cells, it was used MyoD transformed fibroblasts derived from clinically diagnosed DM1 patients (>300 CTG repeats) routinely growing in DMEM supplemented with 10% heat-inactivated fetal bovine serum and maintained at 37° C. in a humidified incubator containing 5% CO2. To detect ribonuclear foci, cells were cultured over cover-slides in flat bottomed 24-well plates, after 24 h compounds of the invention were added to the cells at desiderate concentration, 24 h later in situ hybridization was done by fixing with 4% paraformaldehyde (PFA) 15 min at room temperature, and washed and stored in 70% ethanol. Cells were rehydrated with PBS and pre-hybridized 10 min at room temperature with a pre-hybridization buffer (formamide 30%, 2× saline-sodium citrate buffer (SSC)). Hybridization was performed in a light-proof wet chamber using the same pre-hybridization buffer supplemented with 0.02% bovine serum albumin (BSA), 1 mg/ml yeast tRNA (Sigma), 2 mM sodium (meta)vanadate, 1 mg/ml sperm DNA, 10% dextran sulfate and 1 ng/μl RNase free HPCL-purified Cy3-labeled (CAG)10 RNA. After hybridization cells were washed 2×15 minutes at 45° C. with the pre-hybridization buffer and washed with 1×PBS at room temperature. Slides were mounted with Vectashield solution with DAPI and number of foci by cell and number of cells with/without foci (see FIG. 1) were counted in a minimum of 100 cells for each treatment and concentration tested with a 63× objective in a Leica microscope. Same FISH approach was performed in Drosophila DM1 flies, where thoraces were embedded in OCT and transversal sections were taken with a Leica CM 15105 cryomicrotome. Sections were processed for in situ hybridization and counting for number of foci by cell with the same Cy3-labeled (CAG)10 probe (see FIG. 2).

[2] = test system: MBNL1; assay: Visualization and quantification of MBNL1 release in DM1 fibroblasts; format: cell-based, human; conditions: 100 μM
Procedure: FIG. 4. Visualization and quantification of MBNL1 release (A). Visualization of MBNL1 release for VLT002: Upper row: Untreated DM1 fibroblasts with MBNL1 localizing as ribonuclear foci (see dots in middle and right pictures) to the nucleus (DAPI, detected as gray spherical shadow in left and right pictures). […] (B) Quantification of the area (into the nucleus), where MBNL1 present (Photoshop software), reflects the MBNL1 release after VLT002, VLT025, VLT045, VLT049 and VLT040 treatment (100 μM).
At the same time human cells were recollected for foci counting. Some (150,000-300,000) were prepared for Muscleblind (MBNL1) detection (see FIG. 4). After PBS washes, cells were probed overnight, at 4° C. with anti-MBNL1 antibody (1:5000 dilutions, A2764 antibody) in 1×PBS. After washing cells with 1×PBS, cells were incubated with goat anti-rabbit Alexa 488 (1:500 dilution) for 2 h at RT. Cells were washed 2 times, for 10 min at room temperature with 1×PBS and then mounted onto glass slides using a hard-set mounting media that contains DAPI (Vectashield). Cells were imaged on a Leica microscope.

[3] = test system: (CUG)23 RNA hairpin; assay: 2-Aminopurine fluorescence assay of hairpin RNA unfolding; format: biochemical; conditions: (CUG)23 RNA, dose-range
Procedure: FIG. 7. […] Measurements of the fluorescence emitted (Y-axis), measured as relative fluorescence units (RFU), by 2-aminopurine in a (CUG)23 RNA (1 μM) in the presence of different compounds (dose-range approach), relative to the fluorescence emitted by the free RNA. […] These effects were not observed when incubating the RNA with DMSO (not shown), or with the small molecule pentamidine, published as a compound able to disrupt MBNL1 binding to CUG hairpins (Warf M B et al. Proc. Natl. Acad. Sci. USA 106:18551-56 (2009)). * indicates p-value <0.05 ** p-value <0.005 *** p-value p<0.0005.
Aminopurine Fluorescence assay to detect hairpin double strand RNA unfolding. An aliquot of 2-aminopurine (2AP)-CUG23 RNA (1 μM in binding buffer) was heated at 90° C. for 3 min, placed on ice, and further diluted to 30 nM in a final volume of 1 mL in binding buffer.

[4] = cited from earlier work
[5] = test system: indirect flight muscles of MHC-Gal4/+; UAS-i480CTGs/+ flies; assay: Drosophila muscle histology (IFM muscle area); format: in vivo; conditions: 100 μM, adult IFM
Procedure: FIG. 3. Representative bright field microscopy images of transversal sections of resin-embedded adult IFM (indirect flight muscles) of MHC-Gal4/+; UAS-i480CTGs/+ flies that had been treated with DMSO (left) or with VLT024 (100 μM) (right).
Additional assays involved: • Reverse Transcription-PCR (RT-PCR) to detect levels of normal/aberrant splicing events in specific genes. This approach was performed in human cells from patients (see FIG. 5) or from DM1 mouse (see FIG. 8 up) (HSA^LR, Mankodi A et al., Science, 289:1769-1773 (2000)) tissues (skeletal muscle), from which total RNA was extracted from ˜0.5-1.5×10^5 cells using the Zygem Tissue Plus kit. Serca 1, Cypher or cTNNT genes reverse transcription were performed and quantification of normal/aberrant spliced band forms was obtained (ImageJ software) after running PCR products in 2% agarose gels. As shown in FIGS. 5 and 8 compounds of the invention are able to recover disease phenotypes. • Drosophila Muscle Histology, where five-day old Drosophila thoraces were embedded in Epon for transversal, semi-thin sectioning. Muscle area was quantified (see FIG. 3) by binarizing images (equal dimensions) and quantifying pixels (%) within muscle tissue with ImageJ software. […] A minimum of 8 flies were analyzed in each case.

[6] = test system: FAM-(CUG)10 RNA; assay: Gel retardation assay (fluorescence EMSA) with FAM-(CUG)10; format: binding
Procedure: FIG. 6. Study of the binding of some compounds of Formula I (VLT002, VLT025 and VLT026) to FAM-(CUG)10 (repeat tract present in DM1, HDL2, SCA8 diseases) by means of gel retardation assays.
Fluorescence Electrophoretic Mobility Shift Assay to test RNA-compound binding. Briefly, an aliquot of carboxyfluorescein (FAM)-CUG10 RNA (DM1, HDL2, SCA8; see FIG. 6) was heated at 70° C. for 5 min and diluted to 300 nM. The binding reaction with compounds was then carried out as described in (Garcia-Lopez A et al. Proc. Natl. Acad. Sci. USA. 108(29):11866-71 (2011)). The reaction mix was loaded onto 8% polyacrylamide nondenaturing gels, and electrophoresis was conducted at 4° C. in TB 1× for approximately 30 min at 240V, followed by fluorescence visualization. Quantification of the free RNA band intensity was carried out using the ImageJ software. A non-linear regression analysis was used to calculate EC50, based on a total of three experimental replicates. Same approach was developed with (FAM)-CCUG8 (DM2), CAG10 (SCA3), CGG10 (FXTAS), GGGGCC5 (ALS/FSD), UGGAA6 (SCA31) probes (see FIG. 9).

[7] = dose range of 5-40 mg/kg, compared to mexiletine

Row | Structure (SMILES) | aberrant ribonuclear foci: number of foci/nuclei (A) and/or number of cells without foci (B) [1] | further results
1 | CC(=O)N1CCc2cc3c(c4c2C1Cc1ccccc1-4)OCO3 (stereo not drawn) [VLT043] | significant reduction | 
2 | COc1cc2c3c(c1OC)-c1ccccc1CC3N(C)CC2 (stereo not drawn) [VLT049] | significant reduction | MBNL1 sequestration / MBNL1 release (nuclear area where MBNL1 present) [2]: relieve MBNL1 sequestration; formation of foci (MBNL1 ribonuclear foci) [2]: effectively reduce the formation of foci
3 | COc1cc2c(cc1O)CC1c3c(cc(O)c(OC)c3-2)CCN1C (stereo not drawn) [VLT015] | significant reduction | 
4 | COc1cc(CCN(C)C)c2ccc3c(c2c1OC)=CC(OC)C(OC)C=3 (stereo not drawn) [VLT023] | significant reduction | modification of the hairpin loops formed by the CUG repeats (2-AP fluorescence) [3]: modify the hairpin loops
5 | CC(C)(C)NCC(O)c1ccc(O)c(CO)c1 (stereo not drawn) [salbutamol] |  | antimyotonic effect ([4]; in vivo): did not show any significant antimyotonic effect
6 | COc1cc2ccc3c(CC[N+](C)(C)C)cc(OC)c(OC)c3c2cc1OC [VLT024] | significant reduction | muscle area relative to DMSO-treated flies [5]: significant increase
7 | CC(C)(C)NCC(O)COc1cccc2c1CC(O)C(O)C2 (stereo not drawn) [nadolol] |  | antimyotonic effect ([4]; in vivo): did not show any significant antimyotonic effect
8 | C[N+](C)(C)CCc1cc(O)c(O)c2c1ccc1ccccc12 [VLT053] | significant reduction | 
9 | CC(C)NCC(O)COc1cccc2ccccc12 (stereo not drawn) [propranolol] |  | antimyotonic effect [4, 7]: time-dependent antimyotonic effect
10 | N=C(N)c1ccc(OCCCCCOc2ccc(C(=N)N)cc2)cc1 [pentamidine, reference compound] |  | modification of the hairpin loops formed by the CUG repeats (2-AP fluorescence) [3]: not observed
11 | O=C1c2ccccc2-c2c3c(cc4ccnc1c24)OCO3 [VLT045] | significant reduction | MBNL1 sequestration / MBNL1 release (nuclear area where MBNL1 present) [2]: relieve MBNL1 sequestration; formation of foci (MBNL1 ribonuclear foci) [2]: effectively reduce the formation of foci
12 | COc1cc2c(ccc3c(CCN(C)Cc4ccccc4)cc(OCc4ccccc4)c(OC)c32)cc1OCc1ccccc1 [VLT026] | significant reduction | binding to FAM-CUG10 [6]: bind to FAM-CUG10
13 | CC(=O)Oc1cc2ccc3c(CCN(C)C)cc(OC(C)=O)c(OC(C)=O)c3c2cc1OC(C)=O [VLT056] | significant reduction | 
14 | C[N+]1(C)CCc2cc3c(c4c2c1cc1ccccc14)OCO3 [VLT042] | significant reduction | 
15 | COc1cc(CC[N+](C)(C)C)c2ccc3ccccc3c2c1OC [VLT051] | significant reduction | 
16 | CC(C)(C)NCC(O)c1cc(Cl)c(N)c(Cl)c1 (stereo not drawn) [clenbuterol] |  | antimyotonic effect [4, 7]: time-dependent antimyotonic effect
17 | CCNC(=O)Oc1cc2c(cc1OC)-c1c(OC)c(OC(=O)NCC)cc3c1C(C2)N(C)CC3 (stereo not drawn) [VLT048] | significant reduction | 
